Results as given in patent US8779158B2, “Trisubstituted pyrazoles as acetylcholine receptor modulators” (Janssen Pharmaceutica NV, priority 2008, dated 2014).

Key:
[1] = biological target: T1, hα7-wt nAChR-expressing GH4C1 cells (Homo sapiens, UniProt P36544); experiment: Patch-clamp current recording (whole-cell voltage clamp), potentiation of the choline current and PAM type; type: cell-based; set-up: key: Type 0 compounds minimally enhance the effect size of the current elicited by 1 mM choline.; Type 1 compounds enhance the effect size of the current elicited by 1 mM choline but minimally alter the kinetics of the receptor.; Type 2 compounds enhance the effect size of the current elicited by 1 mM choline while reducing the rate and/or the extent of desensitization.; Type 3 compounds enhance the effect size of the current elicited by 1 mM choline. When tested at higher concentrations up to 10 μM they completely inhibit desensitization, in particular a 1 mM choline application of 250 milliseconds.; Type 4 compounds allow for an initial desensitization of the receptor followed by a re-opening of the receptor during agonist application; settings: 1 mM choline
T1 construct: expressed in transfected cells
T1 sequence (P36544 23-502): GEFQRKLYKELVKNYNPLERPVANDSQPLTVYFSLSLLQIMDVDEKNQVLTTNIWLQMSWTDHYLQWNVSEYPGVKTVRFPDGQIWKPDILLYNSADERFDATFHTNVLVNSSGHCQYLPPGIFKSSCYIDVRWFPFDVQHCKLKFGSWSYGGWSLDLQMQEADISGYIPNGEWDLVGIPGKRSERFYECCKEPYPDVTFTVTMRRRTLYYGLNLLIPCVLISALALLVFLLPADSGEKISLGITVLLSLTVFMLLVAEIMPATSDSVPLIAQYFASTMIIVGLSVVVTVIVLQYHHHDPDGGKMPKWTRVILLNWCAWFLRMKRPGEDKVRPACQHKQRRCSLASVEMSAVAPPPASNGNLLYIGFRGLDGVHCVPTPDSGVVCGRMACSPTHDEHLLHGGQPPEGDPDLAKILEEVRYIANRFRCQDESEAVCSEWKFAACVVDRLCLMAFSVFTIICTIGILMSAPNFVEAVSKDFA
How it was run: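 Whole-cell voltage clamp at −70 mV of GH4C1 cells stably expressing human wild-type α7, with compound co-applied with 1 mM choline via rapid (<100 ms) application; external solution pH 7.3 with 1 mM Ca, CsCl-based internal. Peak-current potentiation relative to choline alone (=100%); compounds reaching ≥200% assigned PAM type 0-4 from desensitization kinetics.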

hα7-wt nAChR = biological target: T2, hα7-wt nAChR (Homo sapiens, UniProt P36544); experiment: Ca2+ flux imaging (FDSS) (Protocol B), potentiation of the choline response; type: cell-based; settings: Ca2+ assay as described in D.1; "<5" = activity did not reach a top plateau at maximal concentration
T2 construct: expressed in transfected cells
T2 sequence (P36544 23-502): as above
How it was run: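 Cells expressing hα7-wt nAChR, loaded with fluo-4AM (2 μM final) in HBSS with 10 mM HEPES, 5 mM CaCl2, 0.1% BSA and probenecid; compound (0.01–30 μM) added up to 10 min before 100 μM choline. Peak fluorescence potentiation relative to choline alone (100%); EC50 from sigmoidal curve.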

SMILES	melting point [°C]	PAM type [1]	EC50 (hα7-wt nAChR) [nM]
CNC(=O)Cn1nc(Nc2ccc(F)c(F)c2)cc1-c1ccc2c(c1)OCCO2 [compound 7, 3-[(3,4-difluorophenyl)amino]-5-(2,3-dihydro-1,4-benzodioxin-6-yl)-N-methyl-1H-pyrazole-1-acetamide]	189.5 to 194.5	2	195
CNC(=O)Cn1nc(Nc2ccc(F)cc2)cc1-c1ccc2c(c1)OCCO2 [compound 73]	169.9 to 177.3	3	437
CNC(=O)Cn1nc(Nc2cccc(F)c2)cc1-c1ccc2c(c1)OCCO2 [compound 72]	189.5 to 194	2	646
CNC(=O)Cn1nc(Nc2ccc3c(c2)OC(F)(F)O3)cc1-c1ccc2c(c1)OCCO2 [compound 97]	171.5 to 171.8		1120
